Results on 13 molecules are retold here after patent US20240368214A1, “POSITIVE NMDA-MODULATING COMPOUNDS AND METHODS OF USE THEREOF” (SAGE THERAPEUTICS, INC., priority 2021, published 2024).

Molecules are shown by their SMILES. Read-outs that look alike come from different tables or passages of the source.

The target in this experiment is T1, recombinant human GluN1/GluN2A receptor (Homo sapiens, UniProt Q05586+Q12879).
T1 construct: expressed in transfected cells; host or cells: HEK293, tetracycline-inducible expression
The experiment in a line: Whole-cell patch clamp of mammalian cells (Syncropatch 384i), NMDA modulation. Type of experiment: cell-based. To be noted: HEK293 cells, human GluN1/GluN2A, glutamate 1 μM / glycine 100 μM, -80 mV, peak amplitude increase; for EC50: read-out: EC50. A digest of the protocol:
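Modulation read as fold rise in peak current, (Icomp/Icontrol)−1, from 8 concentrations with ≥2 wells each, four-parameter fit. Compound pre-incubated 120 s then co-applied with 1 μM glutamate plus 100 μM glycine; tetracycline-inducible HEK293 GluN1/GluN2A cells clamped at −80 mV.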

T1 sequence (Q12879 23-1464, other chains not shown): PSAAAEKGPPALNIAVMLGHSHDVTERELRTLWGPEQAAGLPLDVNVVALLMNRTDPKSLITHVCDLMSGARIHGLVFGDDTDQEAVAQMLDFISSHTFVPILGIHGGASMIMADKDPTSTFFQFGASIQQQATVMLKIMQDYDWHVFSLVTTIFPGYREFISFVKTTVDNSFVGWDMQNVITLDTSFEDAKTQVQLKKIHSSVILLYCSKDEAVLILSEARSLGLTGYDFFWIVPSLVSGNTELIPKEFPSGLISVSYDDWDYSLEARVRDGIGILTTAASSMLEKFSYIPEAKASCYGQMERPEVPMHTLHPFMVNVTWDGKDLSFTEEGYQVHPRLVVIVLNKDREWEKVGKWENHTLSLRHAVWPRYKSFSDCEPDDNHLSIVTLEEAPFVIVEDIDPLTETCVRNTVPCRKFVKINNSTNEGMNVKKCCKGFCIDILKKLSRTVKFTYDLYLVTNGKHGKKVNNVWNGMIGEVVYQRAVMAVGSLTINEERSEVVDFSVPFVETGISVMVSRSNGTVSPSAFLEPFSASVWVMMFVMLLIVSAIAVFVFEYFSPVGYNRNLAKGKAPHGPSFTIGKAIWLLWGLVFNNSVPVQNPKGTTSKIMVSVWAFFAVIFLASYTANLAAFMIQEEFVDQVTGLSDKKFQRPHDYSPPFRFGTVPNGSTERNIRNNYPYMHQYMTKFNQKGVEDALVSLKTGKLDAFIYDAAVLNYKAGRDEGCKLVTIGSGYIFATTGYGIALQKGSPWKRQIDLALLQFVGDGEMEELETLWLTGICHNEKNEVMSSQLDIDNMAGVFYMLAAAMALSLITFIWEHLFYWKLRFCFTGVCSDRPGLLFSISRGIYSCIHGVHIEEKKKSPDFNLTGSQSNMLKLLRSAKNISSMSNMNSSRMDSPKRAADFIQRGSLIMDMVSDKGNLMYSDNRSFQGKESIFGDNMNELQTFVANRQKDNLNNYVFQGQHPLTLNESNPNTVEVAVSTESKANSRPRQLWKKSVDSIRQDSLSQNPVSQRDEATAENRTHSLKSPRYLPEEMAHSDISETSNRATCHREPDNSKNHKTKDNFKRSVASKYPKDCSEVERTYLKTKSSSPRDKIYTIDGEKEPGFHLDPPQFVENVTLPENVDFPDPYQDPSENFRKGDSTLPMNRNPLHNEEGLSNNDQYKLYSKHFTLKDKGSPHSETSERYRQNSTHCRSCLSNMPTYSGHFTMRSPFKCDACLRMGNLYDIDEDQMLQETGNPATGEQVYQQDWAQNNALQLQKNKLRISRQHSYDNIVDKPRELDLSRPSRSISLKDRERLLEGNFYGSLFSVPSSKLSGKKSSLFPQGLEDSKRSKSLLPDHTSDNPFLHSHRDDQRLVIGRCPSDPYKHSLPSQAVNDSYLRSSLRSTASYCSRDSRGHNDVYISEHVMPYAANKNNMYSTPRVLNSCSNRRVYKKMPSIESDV

`C[C@H](CC[C@H](O)C(C)(C)C#N)[C@H]1CC[C@H]2[C@@H]3CC[C@H]4C[C@@](C)(O)CC[C@]4(C)C3=CC[C@]12C` [Compound C-35, (3S,6R)-3-hydroxy-6-((3S,5S,8S,10S,13R,14S,17R)-3-hydroxy-3,10,13-trimethyl-2,3,4,5,6,7,8,10,12,13,14,15,16,17-tetradecahydro-1H-cyclopenta[a]phenanthren-17-yl)-2,2-dimethylheptanenitrile]: the concentration for a half-maximal effect (EC50) reads like this: (Table C-2) 0.001 to 0.1 µM; (Table E-2) 0.001 to 0.1 µM. Turning to `CC[C@@]1(O)CC[C@@H]2CC[C@@H]3[C@H](CC[C@]4(C)[C@@H]([C@H](C)CC[C@@](C)(O)C(F)(F)F)CC[C@@H]34)[C@@]2(C)CC1` [Compound D-1, (1R,3aS,3bR,5aS,8R,10aS,10bS,12aR)-8-ethyl-10a,12a-dimethyl-1-((2R,5R)-6,6,6-trifluoro-5-hydroxy-5-methylhexan-2-yl)octadecahydrocyclohepta[a]cyclopenta[f]naphthalen-8-ol], where the note is “Table D-2”, the maximal effect (Emax) is below 100% and the EC50 is above 1 µM. For `CC[C@]1(O)CC[C@@H]2CC[C@@H]3[C@H](CC[C@]4(C)[C@@H]([C@H](C)CC[C@@](C)(O)C(F)(F)F)CC[C@@H]34)[C@@]2(C)CC1` [Compound D-2, (1R,3aS,3bR,5aS,8S,10aS,10bS,12aR)-8-ethyl-10a,12a-dimethyl-1-((2R,5R)-6,6,6-trifluoro-5-hydroxy-5-methylhexan-2-yl)octadecahydrocyclohepta[a]cyclopenta[f]naphthalen-8-ol], for the setting “Table D-2”, the Emax was below 100% and the half-maximal effective concentration (EC50) was above 1 µM. Consider `CC[C@@]1(O)CC[C@@H]2CC[C@@H]3[C@H](CC[C@]4(C)[C@@H]([C@H](C)CC[C@](C)(O)C(F)(F)F)CC[C@@H]34)[C@@]2(C)CC1` [Compound D-3, (1R,3aS,3bR,5aS,8R,10aS,10bS,12aR)-8-ethyl-10a,12a-dimethyl-1-((2R,5S)-6,6,6-trifluoro-5-hydroxy-5-methylhexan-2-yl)octadecahydrocyclohepta[a]cyclopenta[f]naphthalen-8-ol], for which, under “Table D-2”, the maximum response (Emax) fell in the range of 100 to 200% and the EC50 was in the range of 0.1 to 0.5 µM. Take `CC[C@]1(O)CC[C@@H]2CC[C@@H]3[C@H](CC[C@]4(C)[C@@H]([C@H](C)CC[C@](C)(O)C(F)(F)F)CC[C@@H]34)[C@@]2(C)CC1` [Compound D-4, (1R,3aS,3bR,5aS,8S,10aS,10bS,12aR)-8-ethyl-10a,12a-dimethyl-1-((2R,5S)-6,6,6-trifluoro-5-hydroxy-5-methylhexan-2-yl)octadecahydrocyclohepta[a]cyclopenta[f]naphthalen-8-ol]: the EC50 (Table D-2) was above 1 µM. Consider `CC[C@]1(O)CCC[C@@]2(C)[C@@H](CC[C@@H]3[C@@H]2CC[C@]2(C)[C@@H]([C@H](C)CC[C@@](C)(O)C(F)(F)F)CC[C@@H]32)C1` [Compound D-5, (1R,3aS,3bR,5aS,7S,10aS,10bS,12aR)-7-ethyl-10a,12a-dimethyl-1-((2R,5R)-6,6,6-trifluoro-5-hydroxy-5-methylhexan-2-yl)octadecahydrocyclohepta[a]cyclopenta[f]naphthalen-7-ol], for which, where the note is “Table D-2”, the Emax is below 100% and the EC50 was in the range of 0.1 to 0.5 µM. As to `CC[C@@]1(O)CCC[C@@]2(C)[C@@H](CC[C@@H]3[C@@H]2CC[C@]2(C)[C@@H]([C@H](C)CC[C@@](C)(O)C(F)(F)F)CC[C@@H]32)C1` [Compound D-6, (1R,3aS,3bR,5aS,7R,10aS,10bS,12aR)-7-ethyl-10a,12a-dimethyl-1-((2R,5R)-6,6,6-trifluoro-5-hydroxy-5-methylhexan-2-yl)octadecahydrocyclohepta[a]cyclopenta[f]naphthalen-7-ol], for the setting “Table D-2”, the Emax lay within 100 to 200% and the concentration for a half-maximal effect (EC50) lay within 0.001 to 0.1 µM. The matching figures for `CC[C@]1(O)CCC[C@@]2(C)[C@@H](CC[C@@H]3[C@@H]2CC[C@]2(C)[C@@H]([C@H](C)CC[C@](C)(O)C(F)(F)F)CC[C@@H]32)C1` [Compound D-7, (1R,3aS,3bR,5aS,7S,10aS,10bS,12aR)-7-ethyl-10a,12a-dimethyl-1-((2R,5S)-6,6,6-trifluoro-5-hydroxy-5-methylhexan-2-yl)octadecahydrocyclohepta[a]cyclopenta[f]naphthalen-7-ol]: 100 to 200% and 0.001 to 0.1 µM. For `CC[C@]1(O)CCC[C@@]2(C)C(=CC[C@H]3[C@@H]4CC[C@H]([C@H](C)CCC(C)(C)O)[C@@]4(C)CC[C@@H]32)C1` [Compound D-9, (1R,3aS,3bS,7S,10aR,10bS,12aR)-7-ethyl-1-((R)-5-hydroxy-5-methylhexan-2-yl)-10a,12a-dimethyl-1,2,3,3a,3b,4,6,7,8,9,10,10a,10b,11,12,12a-hexadecahydrocyclohepta[a]cyclopenta[f]naphthalen-7-ol], for the setting “Table D-2”, the Emax was 100 to 200% and the EC50 fell in the range of 0.1 to 0.5 µM.

As to `C[C@H](CC[C@](C)(O)C(F)(F)F)[C@H]1CC[C@H]2[C@@H]3CC=C4C[C@](C)(O)CCC[C@]4(C)[C@H]3CC[C@]12C` [Compound D-14, (1R,3aS,3bS,7R,10aR,10bS,12aR)-7,10a,12a-trimethyl-1-((2R,5S)-6,6,6-trifluoro-5-hydroxy-5-methylhexan-2-yl)-1,2,3,3a,3b,4,6,7,8,9,10,10a, 10b, 11,12,12a-hexadecahydrocyclohepta[a]cyclopenta[f]naphthalen-7-ol], the EC50 (Table D-2) was above 1 µM. Take `C[C@H](CC[C@](C)(O)C(F)(F)F)[C@H]1CC[C@H]2[C@@H]3CC=C4C[C@@](C)(O)CCC[C@]4(C)[C@H]3CC[C@]12C` [Compound D-15, (1R,3aS,3bS,7S,10aR,10bS,12aR)-7,10a,12a-trimethyl-1-((2R,5S)-6,6,6-trifluoro-5-hydroxy-5-methylhexan-2-yl)-1,2,3,3a,3b,4,6,7,8,9,10,10a,10b,11,12,12a-hexadecahydrocyclohepta[a]cyclopenta[f]naphthalen-7-ol]: where the note is “Table D-2”, the Emax was below 100% and the EC50 is 0.1 to 0.5 µM.

Turning to `CC[C@@]1(O)CCC[C@@]2(C)C(=CC[C@H]3[C@@H]4CC[C@H]([C@H](C)CC[C@](C)(O)C(F)(F)F)[C@@]4(C)CC[C@@H]32)C1` [Compound D-16, (1R,3aS,3bS,7R,10aR,10bS,12aR)-7-ethyl-10a,12a-dimethyl-1-((2R,5S)-6,6,6-trifluoro-5-hydroxy-5-methylhexan-2-yl)-1,2,3,3a,3b,4,6,7,8,9,10,10a,10b,11,12,12a-hexadecahydrocyclohepta[a]cyclopenta[f]naphthalen-7-ol], under “Table D-2”, the maximum response (Emax) was below 100% and the EC50 is above 1 µM. Take `CC[C@]1(O)CCC[C@@]2(C)C(=CC[C@H]3[C@@H]4CC[C@H]([C@H](C)CC[C@](C)(O)C(F)(F)F)[C@@]4(C)CC[C@@H]32)C1` [Compound D-17, (1R,3aS,3bS,7S,10aR,10bS,12aR)-7-ethyl-10a,12a-dimethyl-1-((2R,5S)-6,6,6-trifluoro-5-hydroxy-5-methylhexan-2-yl)-1,2,3,3a,3b,4,6,7,8,9,10,10a,10b,11,12,12a-hexadecahydrocyclohepta[a]cyclopenta[f]naphthalen-7-ol]: under “Table D-2”, the Emax is 100 to 200% and the EC50 was 0.1 to 0.5 µM.

By EC50 is commonly meant the concentration that produces a half-maximal response. The Emax is the maximal effect, on the per cent scale that the assay sets.
